Reference: patent US9645147B2, “Recombinant polypeptide construct comprising Plasmodium falciparum circumsporozoite protein HLA class I restricted T-cell epitopes” (priority 2013, dated 2017)
“Also recorded” adds a separate entry of the source. Peptide text beside a SMILES is read from it.

Experiments:
Type in all cases: cell-based, human
[1] = system: PBMC depleted of T-cell subsets; experiment: ELISpot IFN-γ after T-cell subset depletion (CD4+ or CD8+ Dynabeads, mock control); settings: for confirmation as recalling CD8+ T cell responses: ELISpot depletion and ICS studies; for CD4+ depl. sfc/m: after CD4+ T cell depletion; for CD4+ depl. (%) percent change in ELISpot activity: after CD4+ T cell depletion vs control depletion; for CD8+ depl. sfc/m: after CD8+ T cell depletion; for CD8+ depl. (%) percent change in ELISpot activity: after CD8+ T cell depletion vs control depletion; for Control dept. sfc/m: mock (control) depletion; for percent reduction of ELISpot response after CD8+ T cell depletion: text summary over the four volunteers of Table 6
Description: For characterization of ELISpot IFN-γ-producing cells by T-cell subset depletions PBMC were depleted of T-cell subsets using anti-human CD4+ or anti-CD8+ coated Dynabeads M-450 (Dynal, Great Neck, N.Y.) following the manufacturer's instructions. Mock depletion was done with Dynabeads coated with sheep anti-mouse IgG. Flow cytometry confirmed that T-cell subset depletions were >99% in all experiments. Data are presented as the spot-forming cells/million (sfc/m) and percent decrease or increase in activity after depletion.
To further evaluate the predicted epitopes, ELISpot depletion assays were performed using PBMC from four volunteers stimulated with six predicted and tested epitopes. CD8+ T cell depletion reduced responses to Cp1 and Cp9 by 82%100%.

[2] = system: PBMC from volunteers immunized with Ad-CA or Ad-C; experiment: IFN-γ ELISpot assay with cryopreserved PBMC of immunized volunteers; settings: for Epitope sfc/m: Table 4; for ELISpot response to synthesized epitope (in words): volunteers, positive = p<0.05, at least doubling and at least ten sfc over negative control
Description: Previous studies have confirmed that recall-T cell responses, as assayed by ELISpot, are detected using cryopreserved PBMCs although such responses are generally of a lower magnitude than fresh cells (Sedegah, et al., Malar J., 9: 241 (2011)).
The positive control was commercially obtained Class I Peptide Pool Plus (Anaspec, USA). Negative control was media with all supplements but no antigen-specific stimulant.
Throughout the studies, IFN-γ ELISpot assays were conducted as previously described (Sedegah, et al., Malar J., 9: 241 (2011); Wang, et al., PNAS (USA), 98: 10817-22 (2001)). Cryopreserved PBMC were suspended in 100 μL complete medium and stimulated with CSP peptides in 100 μL of complete medium at a final concentration of 10 μg/mL of each peptide tested (Wang, et al., PNAS (USA), 98: 10817-22 (2001)).
Cultures were incubated for 36 hours at 37° C., 5% CO2. Depending on availability of cells, each PBMC sample was assayed in duplicate, triplicate, or quadruplicate and the number of IFN-γ-secreting spot forming cells (sfc) was counted using an automated ELISpot reader (AID, GmbH, Germany). In duplicate assays, all values were used in analysis. […] The mean number of sfcs obtained in negative control wells was subtracted from the value of each test well from the same sample. Negative counts generated by this background subtraction were converted to zero. The mean number of spots of the test sample was then calculated and expressed as spot forming cells/million (sfc/m). A positive response was defined as a significant difference (p=<0.05) between average of the number of spot forming cells (sfc) in test wells and the average of negative control wells (Student's two tailed t-test), and at least a doubling of sfc in test wells relative to negative control wells, and a difference of at least ten sfc between test and negative control wells (Sedegah, et al., PLoS One, 6: e24586 (2011)).

CD4+ T cells = experiment: Intracellular cytokine staining (ICS), IFN-γ, CD4+ population; settings: for ICS CD4+ T cell recall responses (in words): ICS assays, volunteers of Table 6; for CD4+ % (per cent of CD4+ T cells expressing IFN-γ): ICS, positive >0.03%
Description: (§1) Intracellular cytokine staining (ICS) was performed as published previously (Stewart, et al, Infect. Immun., 75: 2283-90 (2007)). Cryopreserved PBMC were thawed, washed, and resuspended at 10×10^6 cells per mL in complete medium. Peptides were used at 10 μg/mL and costimulatory antibodies anti-CD28 and […] (BD Bioscience, San Jose, Calif.) were used at 1 μg/mL. Stimulants were added to cells and incubated at 37° C. with 5% CO2 for 2 hours. Cells were stained with anti-CD3, anti-CD4, anti-CD8, anti-IFN-γ, anti-TNFα, and anti-IL2 and the entire available sample was acquired on a BD LSRII using FACSDiVa (BD Bioscience) software. Data were analyzed using FlowJo Software (Treestar, Inc.). The gating strategy involved progressively measuring total cells; viable cells; lymphocytes; T cells; CD4+ or CD8+ populations; and finally a specific cell type expressing a specific cytokine. Results were transferred to Prism (GraphPad) for graphing and statistical analysis. Data for peptides were corrected for media responses. A positive response was greater than the medium controls+3 standard deviations (0.03%).

CD8+ T cells = experiment: Intracellular cytokine staining (ICS), IFN-γ, CD8+ population; settings: for ICS CD8+ T cell recall responses (in words): ICS assays, volunteers of Table 6; for CD8+ % (per cent of CD8+ T cells expressing IFN-γ): ICS, positive >0.03%
Description: as §1

[3] = volunteer 37 (Ad-C), synthesized epitope, second assay (second value of the cell)
[4] = volunteer 37 (Ad-C), synthesized epitope, single value or first of two assays
[5] = volunteer 40 (Ad-C), synthesized epitope, first of two assays
[6] = volunteer 40 (Ad-C), synthesized epitope, second assay (second value of the cell)

| Compound | confirmation as recalling CD8+ T cell responses [1] | CD4+ depl. sfc/m ([1]; V40) | CD4+ depl. (%) percent change in ELISpot activity ([1]; V40) | CD8+ depl. sfc/m ([1]; V40) | CD8+ depl. (%) percent change in ELISpot activity ([1]; V40) | Control dept. sfc/m ([1]; V40) | CD4+ depl. sfc/m ([1]; V156) | CD4+ depl. (%) percent change in ELISpot activity ([1]; V156) | CD8+ depl. sfc/m ([1]; V156) | CD8+ depl. (%) percent change in ELISpot activity ([1]; V156) | Control dept. sfc/m ([1]; V156) | Epitope sfc/m [2, 3] | Epitope sfc/m [2, 4] | Epitope sfc/m [2, 5] | Epitope sfc/m [2, 6] | ELISpot response to synthesized epitope (in words) [2] | ICS CD4+ T cell recall responses (in words) (CD4+ T cells) | CD4+ % (per cent of CD4+ T cells expressing IFN-γ) (CD4+ T cells; V40) | ICS CD8+ T cell recall responses (in words) (CD8+ T cells) | CD8+ % (per cent of CD8+ T cells expressing IFN-γ) (CD8+ T cells; V40) | other results |
| --- | --- | --- | --- | --- | --- | --- | --- | --- | --- | --- | --- | --- | --- | --- | --- | --- | --- | --- | --- | --- | --- |
| CC[C@H](C)[C@H](NC(=O)[C@@H](N)CC(C)C)C(=O)N[C@@H](CCSC)C(=O)N[C@H](C(=O)N[C@@H](CC(C)C)C(=O)N[C@@H](CO)C(=O)N[C@@H](Cc1ccccc1)C(=O)N[C@@H](CC(C)C)C(=O)N[C@@H](Cc1ccccc1)C(=O)O)C(C)C [Epitope E17a] (H-LIMVLSFLF-OH; N-terminus and C-terminus assumed) | confirmed as recalling CD8+ T cell responses | 210 sfc/m | −11% | 23 sfc/m | −90% | 236 sfc/m | 264 sfc/m | −18% | 85 sfc/m | −82% | 307 sfc/m | 38 sfc/m | 55 sfc/m | 290 sfc/m | 166 sfc/m | recognized; also recorded: positive; also recorded: demonstrated activity | negative | 0.02% | positive | 0.54% | CD4+ % (per cent of CD4+ T cells expressing IFN-γ) (CD4+ T cells; V156): 0.01%; CD8+ % (per cent of CD8+ T cells expressing IFN-γ) (CD8+ T cells; V156): 0.26% |
| CC(C)C[C@H](NC(=O)[C@H](C)NC(=O)[C@H](CCC(=O)O)NC(=O)[C@@H](NC(=O)[C@H](Cc1ccccc1)NC(=O)[C@H](CC(C)C)NC(=O)[C@H](Cc1ccccc1)NC(=O)[C@@H](N)CO)C(C)C)C(=O)N[C@@H](Cc1ccccc1)C(=O)O [Epitope E20] (H-SFLFVEALF-OH; N-terminus and C-terminus assumed) | confirmed as recalling CD8+ T cell responses | 226 sfc/m | −11% | 15 sfc/m | −94% | 254 sfc/m | 273 sfc/m | +28% | 29 sfc/m | −86% | 213 sfc/m | 53, 53 sfc/m | 53, 53 sfc/m | 313 sfc/m | 197 sfc/m | moderately positive; also recorded: demonstrated activity | negative | 0.04% | positive | 0.37% | Epitope sfc/m ([2]; volunteer 68 (Ad-C), synthesized 8-10mer epitope): 34 sfc/m; Epitope sfc/m ([2]; volunteer 156 (Ad-CA), synthesized 8-10mer epitope): 240 sfc/m; CD4+ % (per cent of CD4+ T cells expressing IFN-γ) (CD4+ T cells; V156): 0.01%; CD8+ % (per cent of CD8+ T cells expressing IFN-γ) (CD8+ T cells; V156): 0.25% |
| SVSSFLFVEA (listed as Plasmodium falciparum) [Epitope E19, CSP aa 9-18] | confirmed as recalling CD8+ T cell responses |  |  |  |  |  |  |  |  |  |  |  |  |  |  | moderately active; also recorded: demonstrated activity |  |  | weakly positive |  | CD4+ depl. sfc/m ([1]; V125): 17 sfc/m; CD4+ depl. (%) percent change in ELISpot activity ([1]; V125): −78%; CD8+ depl. sfc/m ([1]; V125): 72 sfc/m; CD8+ depl. (%) percent change in ELISpot activity ([1]; V125): −9%; Control dept. sfc/m ([1]; V125): 79 sfc/m; percent reduction of ELISpot response after CD8+ T cell depletion [1]: 9%; Epitope sfc/m ([2]; volunteer 125 (Ad-CA), synthesized 8-10mer epitope): 33 sfc/m; CD4+ % (per cent of CD4+ T cells expressing IFN-γ) (CD4+ T cells; V125): 0.02%; CD8+ % (per cent of CD8+ T cells expressing IFN-γ) (CD8+ T cells; V125): 0.06% |
| VFNVVNSSI [Epitope E13a] | confirmed as recalling CD8+ T cell responses | 43 sfc/m | −50% | 38 sfc/m | −56% | 86 sfc/m |  |  |  |  |  |  |  | 104 sfc/m | 72 sfc/m | demonstrated activity | negative | 0.01% | positive | 0.12% | percent reduction of ELISpot response after CD8+ T cell depletion [1]: 56% |
